Four compounds from publication PMC11511665 (2024) can be followed below.

The structures appear in SMILES notation.

The test system of assay [1] is Clivia (R8 aptamer, GAAA tetraloop) (RNA, aptamer) GGAAGAUUGUAAACAUGCCGAAAGGCAGACACUUCC
The assay can be described thus: X-ray crystallography. The conditions noted are these: Mg2+ (0.05 M MgCl2); 0.1 M HEPES pH 7.5, 30% PEG MME 550, 16 °C.

For assay [2], the system named is Clivia_III (III_R8) (RNA, aptamer) GGAAGAUUGUAAACAGCGAGAUUGUAAACAGCGAGAUUGUAAACAUGCCGAAAGGCAGACACUCGCGACACUCGCGACACUUUC
The assay can be described thus: X-ray crystallography. The conditions noted are these: 0.2 M MgCl2; 20% PEG 3350, 16 °C.

In assay [3] the test system is M1 (delete U7; Del-U7) (RNA, aptamer) GGAAGAUGUAAACAUGCCGAAAGGCAGACACUUCC
The experiment in a line: fluorescence activation. As to conditions: 100 mM KCl, 5 mM MgCl2; 40 mM HEPES pH 7.4; 1 μM fluorophore, 5 μM RNA.

The test system of assay [4] is M2 (A11G/A12G/A13G) (RNA, aptamer) GGAAGAUUGUGGGCAUGCCGAAAGGCAGACACUUCC
The experiment in a line: fluorescence activation. As to conditions: 100 mM KCl, 5 mM MgCl2; 40 mM HEPES pH 7.4; 1 μM fluorophore, 5 μM RNA.

The test system of assay [5] is M3 (A11C/A12C/A13C) (RNA, aptamer) GGAAGAUUGUCCCCAUGCCGAAAGGCAGACACUUCC
The assay can be described thus: fluorescence activation. As to conditions: 100 mM KCl, 5 mM MgCl2; 40 mM HEPES pH 7.4; 1 μM fluorophore, 5 μM RNA.

For assay [6], the system named is M4 (A11U/A12U/A13U) (RNA, aptamer) GGAAGAUUGUUUUCAUGCCGAAAGGCAGACACUUCC
The experiment in a line: fluorescence activation. The conditions noted are these: 100 mM KCl, 5 mM MgCl2; 40 mM HEPES pH 7.4; 1 μM fluorophore, 5 μM RNA.

Assay [7] has as its system M5 (U8C/A29G) (RNA, aptamer) GGAAGAUCGUAAACAUGCCGAAAGGCAGGCACUUCC
The experiment in a line: fluorescence activation. As to conditions: 100 mM KCl, 5 mM MgCl2; 40 mM HEPES pH 7.4; 1 μM fluorophore, 5 μM RNA.

Assay [8] relates to M6 (U8A/A29U) (RNA, aptamer) GGAAGAUAGUAAACAUGCCGAAAGGCAGUCACUUCC
The assay can be described thus: fluorescence activation. As to conditions: 100 mM KCl, 5 mM MgCl2; 40 mM HEPES pH 7.4; 1 μM fluorophore, 5 μM RNA.

The subject of assay [9] is M7 (A15G/G28A) (RNA, aptamer) GGAAGAUUGUAAACGUGCCGAAAGGCAAACACUUCC
The assay can be described thus: fluorescence activation. As to conditions: 100 mM KCl, 5 mM MgCl2; 40 mM HEPES pH 7.4; 1 μM fluorophore, 5 μM RNA.

For assay [10], the system named is M8 (G28U) (RNA, aptamer) GGAAGAUUGUAAACAUGCCGAAAGGCAUACACUUCC
The assay can be described thus: fluorescence activation. As to conditions: 100 mM KCl, 5 mM MgCl2; 40 mM HEPES pH 7.4; 1 μM fluorophore, 5 μM RNA.

Assay [11] has as its system M9 (A15C) (RNA, aptamer) GGAAGAUUGUAAACCUGCCGAAAGGCAGACACUUCC
The experiment in a line: fluorescence activation. As to conditions: 100 mM KCl, 5 mM MgCl2; 40 mM HEPES pH 7.4; 1 μM fluorophore, 5 μM RNA.

For assay [12], the system named is Clivia_II (II_R8) (RNA, aptamer) GGAAGAUUGUAAACAGCGAGAUUGUAAACAUGCCGAAAGGCAGACACUCGCGACACUUUC
The assay can be described thus: fluorescence activation. As to conditions: 100 mM KCl, 5 mM MgCl2; 40 mM HEPES pH 7.4.

Assay [13] has as its system Clivia_IV (IV_R8) (RNA, aptamer) GGAAGAUUGUAAACAGCGAGAUUGUAAACAGCGAGAUUGUAAACAGCGAGAUUGUAAACAUGCCGAAAGGCAGACACUCGCGACACUCGCGACACUCGCGACACUUUC
The experiment in a line: fluorescence activation. The conditions noted are these: 100 mM KCl, 5 mM MgCl2; 40 mM HEPES pH 7.4.

Assay [14] deals with Clivia_V (V_R8) (RNA, aptamer) GGAAGAUUGUAAACAGCGAGAUUGUAAACAGCGAGAUUGUAAACAGCGAGAUUGUAAACAGCGAGAUUGUAAACAUGCCGAAAGGCAGACACUCGCGACACUCGCGACACUCGCGACACUCGCGACACUUUC
The assay can be described thus: fluorescence activation. As to conditions: 100 mM KCl, 5 mM MgCl2; 40 mM HEPES pH 7.4.

Assay [15] deals with Clivia_VI (VI_R8) (RNA, aptamer) GGAAGAUUGUAAACAGCGAGAUUGUAAACAGCGAGAUUGUAAACAGCGAGAUUGUAAACAGCGAGAUUGUAAACAGCGAGAUUGUAAACAUGCCGAAAGGCAGACACUCGCGACACUCGCGACACUCGCGACACUCGCGACACUCGCGACACUUUC
The experiment in a line: fluorescence activation. The conditions noted are these: 100 mM KCl, 5 mM MgCl2; 40 mM HEPES pH 7.4.

Assay [16] deals with Clivia (R8 aptamer, GAAA tetraloop) (RNA, aptamer) GGAAGAUUGUAAACAUGCCGAAAGGCAGACACUUCC
The experiment in a line: X-ray crystallography, 1.6 Å. The conditions noted are these: Mg2+ (0.05 M MgCl2); 0.1 M HEPES pH 7.5, 30% PEG MME 550, 16 °C.

Assay [17] has the same test system. The assay can be described thus: fluorescence titration, Hill fit. As to conditions: 100 mM KCl, 5 mM MgCl2; 40 mM HEPES pH 7.4; 20 nM RNA.
Assay [18] deals with U7A (RNA, aptamer) GGAAGAAUGUAAACAUGCCGAAAGGCAGACACUUCC
The experiment in a line: fluorescence titration, Hill fit. As to conditions: 100 mM KCl, 5 mM MgCl2; 40 mM HEPES pH 7.4; 20 nM RNA.

Assay [19] has as its system U7C (RNA, aptamer) GGAAGACUGUAAACAUGCCGAAAGGCAGACACUUCC
The assay can be described thus: fluorescence titration, Hill fit. The conditions noted are these: 100 mM KCl, 5 mM MgCl2; 40 mM HEPES pH 7.4; 20 nM RNA.

Assay [20] has as its system U7G (RNA, aptamer) GGAAGAGUGUAAACAUGCCGAAAGGCAGACACUUCC
The assay can be described thus: fluorescence titration, Hill fit. As to conditions: 100 mM KCl, 5 mM MgCl2; 40 mM HEPES pH 7.4; 20 nM RNA.

Assay [21] relates to M10 (delete 2bp in P1; Del-2bp-P1) (RNA, aptamer) GAGAUUGUAAACAUGCCGAAAGGCAGACACUC
The assay can be described thus: fluorescence titration, Hill fit. The conditions noted are these: 100 mM KCl, 5 mM MgCl2; 40 mM HEPES pH 7.4; 20 nM RNA.

The subject of assay [22] is M11 (add 2bp in P1; Ad-2bp-P1) (RNA, aptamer) GGGGAAGAUUGUAAACAUGCCGAAAGGCAGACACUUCCCC
The experiment in a line: fluorescence titration, Hill fit. The conditions noted are these: 100 mM KCl, 5 mM MgCl2; 40 mM HEPES pH 7.4; 20 nM RNA.

Assay [23] has as its system M12 (delete 2bp in P2; Del-2bp-P2) (RNA, aptamer) GGAAGAUUGUAAACACCGAAAGGGACACUUCC
The experiment in a line: fluorescence titration, Hill fit. The conditions noted are these: 100 mM KCl, 5 mM MgCl2; 40 mM HEPES pH 7.4; 20 nM RNA.

Assay [24] has as its system M13 (add 2bp in P2; Ad-2bp-P2) (RNA, aptamer) GGAAGAUUGUAAACAUGCCGCGAAAGCGGCAGACACUUCC
The assay can be described thus: fluorescence titration, Hill fit. The conditions noted are these: 100 mM KCl, 5 mM MgCl2; 40 mM HEPES pH 7.4; 20 nM RNA.

Regarding `CN1C(=O)/C(=C/c2cc(F)c(O)c(F)c2)N=C1/C=C/c1ccc(C#N)cc1`, the binding result in assay [1] is “yes”.

With `CN1C(=O)/C(=C/c2cc(F)c(O)c(F)c2)N=C1/C=C/c1ccc(O)cc1`, the binding entry in [1] is reported as “yes”.

For `CN1C(=O)/C(=C/c2cc(F)c(O)c(F)c2)N=C1/C=C/c1ccccc1`, in assay [1], the binding entry is “yes”.

With `CN1C(=O)/C(=C/c2ccc(N(C)CCO)cc2)N=C1/C=C/c1ccccc1`, the binding entry in assay [2] is given as “yes”; in [3] it was “no”; in assay [4] it was “no”; in assay [5], “no”; in assay [6], “no”; in assay [7], “no”. For the same compound, the binding result is reported as “no” in assay [8]; “no” in assay [9]; “weak” in assay [10]; “no” in assay [11]; “yes” in assay [12]; “yes” in assay [13]. The binding result in [14], in assay [15] and in assay [16] was “yes” each time. The Kd (usually the free concentration of one partner at which half of the binding sites on the other are occupied at equilibrium, for simple one-to-one binding) was 71 ± 15 nM in assay [17]; 107 ± 12 nM in assay [18]; 46 ± 3 nM in assay [19]; 152 ± 12 nM in [20]; 84 nM in assay [21]; 61 nM in assay [22]. Moreover, the Kd in [23] amounted to 44 nM; in assay [24], 55 nM.
